Six compounds from patent publication US20260234107A1, “TRYPTAMINES AND METHODS OF TREATING MOOD DISORDERS” (priority 2022, published 2026) can be followed below.

Series [1] can be described thus: Plasma pharmacokinetics in rats after intravenous administration. Particulars: for AUC(0-t) / C0 / half-life: male, Sprague Dawley, rat, plasma, iv, 1 mg/kg; for plasma half-life (in words): rats, IV 1 mg/kg.
Series [2] is described as follows: Metabolic stability in human liver microsomes (HLM). Set-up: microsomal CLint / half-life: dose or concentration left out as unconfirmed. To be noted: both, human, pooled human liver microsomes, pH 7.4. In general terms: Microsomes from liver hold many membrane-bound enzymes, among them those of drug oxidation.
Series [3] relates to monoamine oxidase A and B (MAO-A and MAO-B). Briefly: Stability in the presence of monoamine oxidases (human liver mitochondria preparation). Particulars: for stability in the presence of MAO (in words): human liver mitochondria preparation; for Remaining (t = 60 min) / half-life / microsomal CLint: human liver mitochondria; for half-life / microsomal CLint: human, pH 7.4; for CLint(MAO) / t1/2: human liver mitochondria 0.30 mg protein/mL, 37° C. Also on record: half-life / microsomal CLint: dose or concentration left out as unconfirmed. Here is the method: Liver Mitochondria Incubations. Human liver mitochondria (Xenotech H0610.M) were used.

Series [4] in a line: Stability in mouse brain homogenate. Particulars: mouse brain homogenate, 1 μM, 37° C.; for half-life at 1 µM: male, CD-1. It counts as in vitro ADME, male CD-1 mice. Here is the method: Disclosed compounds were tested for stability in mouse brain homogenate (Table 7). There was widely variable stability among the test compounds under the conditions of the experiment.
(§1) Mouse Brain Homogenate Stability. Frozen mouse brain homogenate (pooled from male CD-1 mice, BioreclamationIVT, MSE00BRAINMZA) was thawed in a water bath at 37° C. immediately prior to use. Positive controls and test compounds (final concentration in incubation medium=1 μM for test compounds and 2 μM for controls, all with 2% DMSO) were incubated in duplicate for each time point (0, 10, 30, 60, and 120 min) in the mouse brain homogenate at a total reaction volume of 100 μL at 37° C. At the end of each incubation period, reactions were immediately quenched with 400 μL of acetonitrile containing internal standard (200 ng/mL tolbutamine and 200 ng/mL labetalol) and mixed thoroughly. Plates were then sealed, shaken for 20 min, and centrifuged at 4,000 rpm and 4° C. for 20 min. Aliquots of 50 μL of each supernatant were diluted into 100 μL of water and the mixtures were then shaken again for 10 min.

The nature of series [5]: Stability in rat brain homogenate. It counts as in vitro ADME, male Sprague Dawley rats. Particulars: rat brain homogenate, 1 μM, 37° C.; for half-life at 1 µM: male, Sprague Dawley. Here is the method: Disclosed compounds were tested for stability in rat brain homogenate (Table 8). There was widely variable stability among the test compounds under the conditions of the experiment.
as §1, with “Rat” for “Mouse”, “rat” for “mouse”, “Sprague Dawley rats,” for “CD-1 mice,”, “RAT00BRAINMZA)” for “MSE00BRAINMZA)”

Series [6] deals with rat synaptosomes. As to the kind of experiment: Serotonin (5-HT) release from rat synaptosomes. Type of series: biochemical, Male Sprague-Dawley rats. Particulars: for EC50: rat synaptosomes preloaded with [3H]5-HT; for % Release @ Max Dose (10 μM): rat synaptosomes. Here is the method: Disclosed compounds were assessed for their ability to release serotonin (5-HT) from […] (Table 9). Potency and efficacy for 5-HT release varied substantially depending on the specific compound. […] However, there was also substantial variability among 4-hydroxy compounds.
Synaptosome 5-HT Release Assay. Synaptosome release assays were conducted according to modifications of previously described procedures (Partilla et al. (2016). Interrogating the Activity of Ligands at Monoamine Transporters in Rat Brain Synaptosomes. In Neurotransmitter Transporters (pp. 41-52). Springer.). Briefly, synaptosomes were prepared from rat brains. Male Sprague-Dawley rats were rendered unconscious with CO2 and their brains were immediately removed. The cerebella were discarded and the whole brains (minus striatum) were placed in ice-cold 0.32 M sucrose (10 mL per brain) and gently homogenized by hand. The homogenate of each brain was centrifuged at 1,000×g at 4° C. for 10 mins and the resulting supernatant was diluted with ice-cold 0.32 M sucrose to a total volume of 10 mL to provide the synaptosome solution. Synaptosomes were then preloaded with 5 nM [^3H]5-HT in the presence of selective uptake inhibitors of DAT (50 nM GBR12935), NET (100 nM nomifensine), and VMAT2 (1 μM reserpine) in Krebs phosphate buffer (KPB). The incubations were allowed to reach equilibrium for 2 h at 25° C. For the release reactions, 425 μL of preloaded synaptosomes were added to test tubes containing 75 μL of test drugs diluted in KPB containing 1 mg/mL BSA. After 10 mins, the release reaction was stopped using a cell harvester by rapid vacuum filtration over GF/B filter paper presoaked in wash buffer (10 mM Tris-HCl, pH 7.4, 150 mM NaCl) and the filters were washed with additional wash buffer. Filters were dried for 1 h at 60° C. and retained radioactivity was quantified using a MicroBeta 2 liquid scintillation counter. The amount of retained radioactivity was inversely proportional to the extent of release.

Series [7] deals with T1, 5-HT1A (Homo sapiens, UniProt P08908).
T1 construct: host or cells: CHO cells
T1 sequence (P08908 1-422): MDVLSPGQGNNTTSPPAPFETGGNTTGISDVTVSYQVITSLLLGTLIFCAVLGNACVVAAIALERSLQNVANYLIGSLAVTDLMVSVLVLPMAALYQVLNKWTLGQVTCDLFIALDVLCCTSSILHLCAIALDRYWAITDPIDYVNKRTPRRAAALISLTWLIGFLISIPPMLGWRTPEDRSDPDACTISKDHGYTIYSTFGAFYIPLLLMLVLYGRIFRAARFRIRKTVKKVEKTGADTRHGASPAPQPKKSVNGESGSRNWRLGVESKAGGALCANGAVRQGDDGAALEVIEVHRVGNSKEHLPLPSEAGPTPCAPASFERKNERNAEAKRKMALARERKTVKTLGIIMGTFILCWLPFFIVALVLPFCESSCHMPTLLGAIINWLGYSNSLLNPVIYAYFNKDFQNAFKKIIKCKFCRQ
As to the kind of experiment: FLIPR Ca2+ flux agonist assay at 5-HT1A. Type of series: cell-based. Particulars: for 5-HT1A % Act @ Max Dose: Ca2+ flux, CHO cells. Here is the method: A solution of 250 mM probenecid in 1 mL FLIPR assay buffer was prepared fresh. This was combined with a fluorescent dye (Fluo-4 Direct™) to make a final assay concentration of 2.5 mM. […] The fluorescent dye was then added to the assay plate along with assay buffer to a final volume of 40 μL. The cell plate was incubated for 50 min at 37° C. and 5% CO2 and placed into the FLIPR Tetra along with the compound plate. 10 μL of references and compounds were then transferred from the compound plate into the cell plate and the fluorescent signal was read.
A general note: Calcium assays in cells follow changes in intracellular calcium, usually with a dye or a luminescent sensor.

The AUC(0-t) is exposure summed from dosing to a finite time, without extrapolation to infinity. A word on the half-life: it is the time in which the quantity being followed falls by half. The term microsomal CLint denotes the rate of metabolic loss divided by the concentration. As to `CNCCc1c[nH]c2cccc(O)c12` [Compound 2, 3-(2-(methylamino)ethyl)-1H-indol-4-ol], in series [1], the AUC(0-t) amounted to 21 ng·h/mL, the C0 was 185 ng/mL, the half-life was 0.18 h and the “plasma half-life (in words)” value is on record as “very short half-lives”. Further, in series [2], the half-life stood at 0.22 h and the microsomal CLint was 105 µL/min/mg. In series [3], the “stability in the presence of MAO (in words)” value (“stability in the presence” for short) is on record as “highly unstable”, the “Remaining (t = 60 min)” value stood at 12.8%, the half-life came out at 0.312 h and the microsomal CLint was 124 µL/min/mg. In addition, in series [4], the half-life at 1 µM amounted to 0.233 h and the “% Compound Remaining (after 120 min)” value was determined as 0.2%. Further, in series [5], the half-life at 1 µM stood at 0.105 h and the “% Compound Remaining (after 120 min)” value came to 0.2%.

One may read the EC50 as the concentration giving half of the maximal effect. As for `CCCNCCc1c[nH]c2cccc(O)c12` [Compound 3, 3-(2-(propylamino)ethyl)-1H-indol-4-ol], in series [2], the half-life stood at 1.99 h and the microsomal CLint came out at 11.6 µL/min/mg. In addition, in series [3], the “stability in the presence” value was “highly stable”, the “Remaining (t = 60 min)” value is listed as 97.3%, the half-life was > 2.42 h and the microsomal CLint was < 15.9 µL/min/mg. For the same compound, in series [4], the half-life at 1 µM stood at 1.21 h and the “% Compound Remaining (after 120 min)” value stood at 29.2%. For the same compound, in series [6], the EC50 was > 10 µM and the “% Release @ Max Dose (10 μM)” value is 36.06%. For the same compound, in series [5], the half-life at 1 µM worked out at 2.28 h and the “% Compound Remaining (after 120 min)” value is given as 52.5%. Further, in series [7], the EC50 was found to be 33.1 µM and the “5-HT1A % Act @ Max Dose” value turned out to be 10.7%.

As to `CCNCCc1c[nH]c2cccc(O)c12` [Compound 5, 3-(2-(ethylamino)ethyl)-1H-indol-4-ol], in series [1], the AUC(0-t) is 161 ng·h/mL, the C0 worked out at 350 ng/mL and the half-life was 0.65 h. For the same compound, in series [2], the half-life is > 2.42 h and the microsomal CLint is < 9.6 µL/min/mg. For the same compound, in series [3], the “Remaining (t = 60 min)” value is given as 76.2%, the half-life was > 2.42 h and the microsomal CLint was < 15.9 µL/min/mg. In series [4], the half-life at 1 µM stood at 3.06 h and the “% Compound Remaining (after 120 min)” value amounted to 67.2%. For the same compound, in series [6], it took 4.06 µM to reach a half-maximal effect (EC50) and the “% Release @ Max Dose (10 μM)” value is reported as 53.8%. Besides, in series [5], the half-life at 1 µM turned out to be 2.63 h and the “% Compound Remaining (after 120 min)” value turned out to be 61.5%.

`CC(C)NCCc1c[nH]c2cccc(O)c12` [Compound 6, 3-(2-(isopropylamino)ethyl)-1H-indol-4-ol]: in series [2], the half-life is > 2.42 h and the microsomal CLint is < 9.6 µL/min/mg. Also, in series [3], the “Remaining (t = 60 min)” value was found to be 80.5%, the half-life was > 2.42 h and the microsomal CLint was < 15.9 µL/min/mg. In addition, in series [4], the half-life at 1 µM worked out at 2.71 h and the “% Compound Remaining (after 120 min)” value is reported as 62.6%. Moreover, in series [6], the EC50 was > 10 µM and the “% Release @ Max Dose (10 μM)” value is 32.8%. For the same compound, in series [5], the half-life at 1 µM was found to be 2.27 h and the “% Compound Remaining (after 120 min)” value turned out to be 53.8%. Further, in series [7], the EC50 was > 100 µM and the “5-HT1A % Act @ Max Dose” value turned out to be 10.15%.

Consider `CN(C)CCc1c[nH]c2ccccc12` [DMT, N,N-dimethyltryptamine, reference compound], for which, in series [3], the “CLint(MAO)” value turned out to be 134.9 µL/min/mg, the t1/2 was determined as 0.285 h, the “stability in the presence” value is “rapidly metabolized by MAO” and the “Remaining (t = 60 min)” value was determined as 8.9%. Moreover, in series [4], the t1/2 turned out to be 0.107 h and the “% Compound Remaining (after 120 min)” value is listed as 0.0%. Besides, in series [6], a half-maximal response (EC50) required 0.0808 µM and the “% Release @ Max Dose (10 μM)” value came to 80.77%. Besides, in series [5], the t1/2 is 0.085 h and the “% Compound Remaining (after 120 min)” value was 0.0%.

With `CN(C)CCc1c[nH]c2cccc(O)c12` [Psilocin, psilocin, reference compound], in series [1], the AUC(0-t) is 146 ng·h/mL, the C0 amounted to 179 ng/mL, the half-life was 1.56 h and the “plasma half-life (in words)” value is on record as “much longer half-lives”. In series [3], the “CLint(MAO)” value is <15.9 µL/min/mg, the t1/2 was >2.42 h, the “stability in the presence” value is on record as “stable” and the “Remaining (t = 60 min)” value was found to be 112.1%. In series [4], the t1/2 was >4.818 h and the “% Compound Remaining (after 120 min)” value is on record as 97.6%. In addition, in series [5], the t1/2 worked out at 1.913 h and the “% Compound Remaining (after 120 min)” value is reported as 46.1%. Also, in series [7], the “5-HT1A % Act @ Max Dose” value stood at 0.720%.
